Assay results published in PMC8556396, “Statin-mediated disruption of Rho GTPase prenylation and activity inhibits respiratory syncytial virus infection” (Communications Biology, 2021).
“And” between values parts separate entries of the source, which are not always exact repeats. Identical values can stand only once. Counter-ions that a name gives are not always drawn.

Legend:
[1] = system: RSV-GFP; assay: RSV-GFP infection of HEp-2 cells, automated imaging, dose-response; format: cell-based, Respiratory syncytial virus; conditions: for EC50: HEp-2, RSV-GFP MOI 0.5, treated 2 h post-viral exposure
Method: HEp-2 cells were seeded to black, flat, microclear-bottom 96-well plates (655096, Greiner Bio-One) at a density of 5000 cells per well and incubated at 37 °C/5% CO2 overnight. The following morning, cells were washed twice with serum-free EMEM and treated with RSV-GFP (MOI 0.5) in a minimal volume of serum-free media for 90 min under frequent agitation. Unbound virus was then removed and replaced with fresh serum-containing EMEM. All drug additions were performed 2 h post-viral exposure, unless otherwise stated. Nuclei were stained with Hoechst 33342 (H3570, Thermo Fisher Scientific) (at a final concentration of 1 µg/mL) 48 h p.i. and imaging was performed using the Cellomics ArrayScan VTI HCS Reader at ×10 magnification (SPARC BioCentre, The Hospital for Sick Children, Toronto, ON).
Automated quantification of infection rates from fluorescent images were performed in CellProfiler (v2.2.0)[86]. Major steps in the image analysis pipeline included: (1) background subtraction and smoothing, (2) segmentation of nuclei, (3) segmentation of GFP-fluorescent area, (4) object masking, and (5) measurement of nuclear number, size, and intensity. Infection rate was quantified from the ratio of nuclei within GFP-fluorescent area to the total number of nuclei (Fig. 1b). This method of analysis accounts for in vitro syncytium formation induced by RSV, whereby a single infected cell may arise from the fusion of multiple cells. Mean nuclear fluorescent intensity and size was quantified as a measure of cell viability. […]

[2] = system: HEp-2 cells; assay: In vitro cytotoxicity assay (MTT); format: cell-based
[3] = system: RSV-GFP; format: cell-based, Respiratory syncytial virus
Method: WD-PNECs were cultured as per the referenced protocol. Using a sterile cytology brush, nasal scrapings were obtained from healthy volunteers with no known history of lung disease or respiratory medication use. Cells were then seeded on a collagen-coated flask and maintained in Bronchial Epithelial Cell Growth Medium (BEGM) (CC-3170, Lonza) or PneumaCult-Ex (05008, […] Technologies). Upon reaching 70% confluency, cells were passaged and seeded on collagen-coated transwell inserts (6.5 mm diameter, 0.4 µm pore size) (3413, Corning). An air–liquid interface was generated by removing media on the apical side of the cells and replacing the remaining media with PneumaCult-ALI media (05001, […] Technologies). By week 3, cells were differentiated with a ciliated phenotype. Transepithelial resistance was quantified using an ohmmeter (World Precision Instruments) to evaluate epithelial barrier function prior to experimentation. Cells were apically infected with RSV-GFP (MOI 0.01) and infection rates were quantified from GFP signal.

[4] = system: RSV-GFP; assay: Time-of-drug addition assay; format: cell-based, Respiratory syncytial virus; conditions: for antiviral effect by time of addition: 3.5 µM; for RSV-GFP inhibition (% of maximum): MOI 2.0, read 24 h p.i.
Method: Time-of-drug addition assays are routinely used to assess the approximate stage of viral infection affected by a drug[25]. HEp-2 cells were seeded to black, flat, microclear-bottom 96-well plates (Greiner Bio-One) and infected with RSV-GFP (MOI 2.0). […]. RSV-GFP infection rates were quantified 24 h p.i to approximately capture a single cycle of infection.

[5] = system: RSV A2; assay: Quantification of infectious virus production (plaque assay); format: cell-based, Respiratory syncytial virus; conditions: Fig 3B; atorvastatin 3.5 uM, simvastatin 1.5 uM; supernatants of RSV A2-infected HEp-2; replicate values
Method: HEp-2 cells were seeded to six-well plates at a density of 1 × 10^6 cells per well and incubated overnight at 37 °C/5% CO2. The following morning, cells were infected with RSV A2 (MOI 1.0) and treated with drugs 2 h post-viral exposure. The supernatant, containing progeny virions, was collected 48 h p.i., snap frozen, and stored at −80 °C. Quantification of infectious virus particles was performed by a traditional plaque assay. HEp-2 cells were seeded to six-well plates at a density of 1.5 × 10^6 cells per well and grown to 90% confluency. Cells were incubated with serial dilutions of the collected supernatants for 90 min at 37 °C/5% CO2 under frequent agitation. The inoculant was then removed and replaced with 4 mL of 1:1 4% FBS DMEM-F12/1% agarose. Plates were incubated for 5 days at 37 °C/5% CO2. Cells were then fixed with 10% formalin for 30 min at room temperature. After fixation and removal of agarose from each well, the cells were stained with 0.05% neutral red and plaques were quantified under a dissecting microscope.

[6] = system: prenylated proteins (small GTPases); assay: Measurement of protein prenylation by click chemistry; format: cell-based; conditions: for GAPDH Normalized Intensity, Farnesylation / GAPDH Normalized Intensity, Geranylgeranylation / Raw Integrated Intensity, Farnesylation / Raw Integrated Intensity, Geranylgeranylation: + statin (atorvastatin 3.5 µM)
Method: HEp-2 cells were cultured in the presence of farnesyl alcohol azide (FAA) (SC-294586, Santa Cruz Biotechnology) or geranylgeranyl alcohol azide (GGAA) (C10249, Thermo Fisher Scientific) at a final concentration of 25 µM diluted in 10 mM aqueous NH4OH. Cells were infected with RSV A2 (MOI 0.5) and treated with drugs 2 h post-viral exposure. Cell lysis was performed on ice in RIPA buffer 48 h p.i., and prenylated proteins were reacted with biotin-PEG4-alkyne using the Click-iT Protein Reaction Buffer Kit (C10276, Thermo Fisher Scientific) as per the manufacturer’s protocol. Prenylated proteins in the processed samples were then visualized by western blot using a streptavidin-HRP conjugate (RPN1231, Cytiva) and Clarity ECL Substrate (1705061, Bio-Rad). Relative protein levels were quantified by densitometry in ImageJ (v1.52b).

[7] = system: RSV A2; assay: Immunofluorescence staining and microscopy of RSV F and N;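 for RSV N intensity (a.u.): fluorescence normalized to total nuclear count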
Method: HEp-2 cells were seeded to No. 1 glass coverslips (1014355117NR1, Thermo Fisher Scientific) for high-resolution confocal microscopy, or black, flat, microclear-bottom 96-well plates (655096, Greiner Bio-One) for high-throughput quantification of RSV F and N immunofluorescence. Cells were infected with RSV A2 (MOI 0.5). At 48 h p.i., cells were fixed in 4% paraformaldehyde for 30 min and permeabilized with 0.3% Triton X-100 for 10 min at room temperature. F and N proteins were probed using mouse anti-RSV F (RSV3216) and mouse anti-RSV N (RSV3132) mAbs (Bio-Rad Antibodies) diluted 1:500 in PBS + 0.1% Tween-20 (PBST), or mouse anti-RSV F mAb Alexa Fluor 488 conjugate (Millipore Sigma, 133/1H) diluted 1:200 in PBST over a 1-h incubation at room temperature. This was followed by detection with secondary anti-mouse Fab fragments conjugated to Alexa Fluor 488 (4408) or 647 (4410) (Cell Signaling Technology) diluted 1:1000 in PBST over a 1-h incubation at room temperature. Fluorescent images were acquired using either the Cellomics ArrayScan VTI HCS Reader at ×10 magnification (for quantification) or Olympus IX81 Spinning Disk Confocal microscope at ×60 magnification with oil immersion (for high-resolution images). F and N immunofluorescence was quantified in CellProfiler and normalized to total nuclear count.

## CC(C)c1c(C(=O)Nc2ccccc2)c(-c2ccccc2)c(-c2ccc(F)cc2)n1CC[C@@H](O)C[C@@H](O)CC(=O)O [Atorvastatin, Atorvastatin calcium salt trihydrate]
[1]
  EC50: 2.56 µM
[1]; human respiratory syncytial virus, HEp-2, 2 h
  EC50: 2.6 µM
[1]; human respiratory syncytial virus, HEp-2, 48 h, read-out: RSV-GFP inhibition (%), log Conc (uM) -1, replicate values
  inhibition at 0.1 µM: 5.55%
[2]
  cellular viability by MTT assay at EC50: no significant difference from baseline
[2]; human
  doses with significant reduction in viability: greater than 10.0 µM
[3]; atorvastatin 5.0 µM, 72 h post-infection, mean ± SEM
  reduction of RSV-GFP infection: 67.4 ± 11.5%
[3]; microscopic appearance and barrier integrity
  cellular viability of PNECs: Cellular viability remained intact
[4]; added 8–22 h p.i.
  antiviral effect by time of addition: loss in antiviral effect
[4]; added 2 h pre-infection vs. 2–6 h post-infection
  antiviral effect by time of addition: No difference in antiviral effect
[4]; atorvastatin 3.5 µM added 2 h p.i.
  RSV-GFP inhibition (% of maximum): 93.8741 % of maximum and 100 % of maximum and 63.7076 % of maximum and 87.4617 % of maximum
[4]; atorvastatin 3.5 µM added 4 h p.i.
  RSV-GFP inhibition (% of maximum): 79.9181 % of maximum and 67.4308 % of maximum and 95.7721 % of maximum and 95.1175 % of maximum
[4]; atorvastatin 3.5 µM added 6 h p.i.
  RSV-GFP inhibition (% of maximum): 73.0198 % of maximum and 92.897 % of maximum and 83.1029 % of maximum and 75.3925 % of maximum
[4]; atorvastatin 3.5 µM added 8 h p.i.
  RSV-GFP inhibition (% of maximum): 73.881 % of maximum and 38.0526 % of maximum and 68.6457 % of maximum and 56.4404 % of maximum
[4]; atorvastatin 3.5 µM added -2 h p.i.
  RSV-GFP inhibition (% of maximum): 95.6726 % of maximum and 68.3345 % of maximum and 91.0474 % of maximum and 75.5348 % of maximum
[5]
  Virus titre (log10 PFU/mL): 4.38 log10 PFU/mL and 4.4624 log10 PFU/mL and 4.176 log10 PFU/mL and 4.322 log10 PFU/mL
[6]; + RSV
  GAPDH Normalized Intensity, Farnesylation: 1.959 and 2.027
  GAPDH Normalized Intensity, Geranylgeranylation: 0.9753 and 1.167
  Raw Integrated Intensity, Farnesylation: 2027541 and 2238487
  Raw Integrated Intensity, Geranylgeranylation: 1062035 and 1238827
[6]; - RSV
  GAPDH Normalized Intensity, Farnesylation: 1.992 and 1.8833
  GAPDH Normalized Intensity, Geranylgeranylation: 0.8805 and 0.8849
  Raw Integrated Intensity, Geranylgeranylation: 899910 and 921628
[6]; - RSV, one value per lane
  Raw Integrated Intensity, Farnesylation: 1842503 and 1809411
[6]; atorvastatin 3.5 µM, 48 h p.i.
  effect on virus-induced small GTPase prenylation: largely mitigate these virus-induced increases to small GTPase prenylation
[7]; Fig 5C, statin alone: atorvastatin 3.5 uM, simvastatin 1.5 uM
  RSV N intensity (a.u.): 0.7327 a.u. and 0.5028 a.u. and 0.4468 a.u. and 0.7381 a.u.
[7]; atorvastatin 3.5 µM with CN04 1.0 µM
  effect of atorvastatin co-treatment with CN04: negated the pro-viral effects of Rho GTPase activation
